We go through 1 compound from patent US20220332782A1, “Combined Artificial Cell Death/Reporter System Polypeptide for Chimeric Antigen Receptor Cell and Uses Thereof” (Century Therapeutics, Inc., priority 2021, published 2022).

Format in all cases: cell-based
One test relates to untransfected iPSCs. In words: ganciclovir treatment of untransfected iPSCs (WT control), cell confluency by imaging. Particulars: 1 μM ganciclovir. As for the experimental part:
(§1) The ability to induce cell death in cells expressing the HSV-TK-PSMA fusion or HSV-TK alone was next tested. […] The resulting plasmid (p1474; shown in FIG. 4) was sequenced and grown up for purification using the Qiagen maxi-prep kit. Next, iPSCs were transfected with the p1499 or p1474 plasmids. Transfected and untransfected cells were plated into 6 well dishes (2×10^5 cells/well) and treated with and without 1 μM ganciclovir and imaged at 24 and 48 hours to monitor cell growth. […] It will be appreciated by those skilled in the art that changes could be made to the embodiments described above without departing from the broad inventive concept thereof. It is understood, therefore, that this invention is not limited to the particular embodiments disclosed, but it is intended to cover modifications within the spirit and scope of the present invention as defined by the present description.

Test [1] deals with wild-type (WT; un-engineered) iPSCs. In words: ganciclovir treatment of wild-type (un-engineered) iPSCs, visual inspection. Conditions: increasing concentrations of ganciclovir, 60 hours. The text has this:
(§2) FIGS. 6A-6B show results from cells transfected with a HSV-TK […]-T2A-PSMA transgene.

In test [2] the test system is iPSCs expressing the HSV-TK-PSMA fusion. In words: ganciclovir killing of iPSCs transfected with HSV-TK-PSMA fusion (p1499), cell confluency by imaging. Conditions: 1 μM ganciclovir. As for the experimental part: as §1
Test [3] concerns iPSCs expressing HSV-TK alone. In words: ganciclovir killing of iPSCs transfected with HSV-TK alone (p1474), cell confluency by imaging. Conditions: 1 μM ganciclovir, 24 and 48 hours. As for the experimental part: as §1
For test [4], the system named is HSV-TK (A168H)-T2A-PSMA engineered iPSCs. In words: ganciclovir killing of HSV-TK (A168H)-T2A-PSMA engineered iPSCs, visual inspection. Particulars: 1 uM ganciclovir, 60 hours.
Excerpt: as §2

With `Nc1nc(O)c2ncn(COC(CO)CO)c2n1` [ganciclovir], in the test with untransfected iPSCs (24 hours and 48 hours), the “effect on cell growth” value is recorded as “no effect”. Besides, the cell confluency with untransfected iPSCs (48 hours, WT cells) was determined as 73%; in test [2] (48 hours, iPSCs expressing HSV-TK-PSMA) it was 6%. Moreover, in test [1], the “effect on un-engineered cells” value is reported as “unaffected”. For the same compound, the “confluency compared with untreated cells” value was “reduced confluency” in test [2] (24 and 48 hours); “reduced confluency” in test [3]. Moreover, the killing in test [4] is recorded as roughly 100%.
